From PMC7435778, “Bidirectional Modulation of the Voltage-Gated Sodium (Nav1.6) Channel by Rationally Designed Peptidomimetics” (Molecules, 2020)
Read-outs that look alike come from different tables or passages of the source. Blank lines part the entries; values can stand above or below the molecule they belong to. Starred links: 1 amine or outer side, 2 acyl side, 3 side chain; linkers in the order of their positions; H or OH if unused. Non-standard residues stand in square brackets, D forms with d. Residues, ends and D or L forms follow the SMILES beside them. *: point of attachment. Tyr(OtBu) = CC(C)(C)Oc1ccc(C[C@H](N[*:1])C(=O)[*:2])cc1; Glu(OtBu) = CC(C)(C)OC(=O)CC[C@H](N[*:1])C(=O)[*:2]; Fmoc = O=C(OCC1c2ccccc2-c2ccccc21)*; Decanoyl = CCCCCCCCCC(=O)*; Cbz = O=C(OCc1ccccc1)*; Boc = CC(C)(C)OC(=O)*; Bz = O=C(c1ccccc1)*; OtBu = CC(C)(C)O*; tBu = CC(C)(C)*

Assays:
MSNs of the NAc = test system: MSNs of the NAc; parameters: method as in PMID 29359916; conditions: previously reported; cited from earlier work
FGF14 = molecular target: T1, FGF14 (Homo sapiens, UniProt Q92915); test: Surface plasmon resonance binding to FGF14; conditions: for koff: read-out: koff FGF14; for kon: read-out: kon FGF14
T1 sequence (Q92915 64-252 isoform Q92915-2): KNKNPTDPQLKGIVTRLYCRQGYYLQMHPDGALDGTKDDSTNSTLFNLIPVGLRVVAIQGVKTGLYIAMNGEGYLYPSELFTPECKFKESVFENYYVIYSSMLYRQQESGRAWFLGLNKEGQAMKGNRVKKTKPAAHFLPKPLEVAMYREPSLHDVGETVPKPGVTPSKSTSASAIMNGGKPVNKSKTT

Nav1.6 channel [1] = molecular target: T2, Nav1.6 channel (Homo sapiens, UniProt Q9UQD0); test: Whole-cell patch-clamp electrophysiology in HEK-Nav1.6 cells; type: cell-based; conditions: 20 µM; for Tau of Fast Inactivation: at −10 mV, DMSO 1.17 ± 0.09; for Long Term Inactivation, depolarization cycle 4 (INa/INa,Cycle 1) / Long Term Inactivation, depolarization cycle 3 (INa/INa,Cycle 1) / Long Term Inactivation, depolarization cycle 2 (INa/INa,Cycle 1): fraction of channels available; for Long Term Inactivation, depolarization cycle 4 (INa/INa,Cycle 1): DMSO 0.85 ± 0.04; for Long Term Inactivation, depolarization cycle 3 (INa/INa,Cycle 1): DMSO 0.86 ± 0.03; for Long Term Inactivation, depolarization cycle 2 (INa/INa,Cycle 1): DMSO 0.89 ± 0.03; for V1/2 of Steady-state Inactivation: DMSO –58.58 ± 1.90
T2 construct: expressed in transfected cells
T2 sequence (Q9UQD0 whole entry): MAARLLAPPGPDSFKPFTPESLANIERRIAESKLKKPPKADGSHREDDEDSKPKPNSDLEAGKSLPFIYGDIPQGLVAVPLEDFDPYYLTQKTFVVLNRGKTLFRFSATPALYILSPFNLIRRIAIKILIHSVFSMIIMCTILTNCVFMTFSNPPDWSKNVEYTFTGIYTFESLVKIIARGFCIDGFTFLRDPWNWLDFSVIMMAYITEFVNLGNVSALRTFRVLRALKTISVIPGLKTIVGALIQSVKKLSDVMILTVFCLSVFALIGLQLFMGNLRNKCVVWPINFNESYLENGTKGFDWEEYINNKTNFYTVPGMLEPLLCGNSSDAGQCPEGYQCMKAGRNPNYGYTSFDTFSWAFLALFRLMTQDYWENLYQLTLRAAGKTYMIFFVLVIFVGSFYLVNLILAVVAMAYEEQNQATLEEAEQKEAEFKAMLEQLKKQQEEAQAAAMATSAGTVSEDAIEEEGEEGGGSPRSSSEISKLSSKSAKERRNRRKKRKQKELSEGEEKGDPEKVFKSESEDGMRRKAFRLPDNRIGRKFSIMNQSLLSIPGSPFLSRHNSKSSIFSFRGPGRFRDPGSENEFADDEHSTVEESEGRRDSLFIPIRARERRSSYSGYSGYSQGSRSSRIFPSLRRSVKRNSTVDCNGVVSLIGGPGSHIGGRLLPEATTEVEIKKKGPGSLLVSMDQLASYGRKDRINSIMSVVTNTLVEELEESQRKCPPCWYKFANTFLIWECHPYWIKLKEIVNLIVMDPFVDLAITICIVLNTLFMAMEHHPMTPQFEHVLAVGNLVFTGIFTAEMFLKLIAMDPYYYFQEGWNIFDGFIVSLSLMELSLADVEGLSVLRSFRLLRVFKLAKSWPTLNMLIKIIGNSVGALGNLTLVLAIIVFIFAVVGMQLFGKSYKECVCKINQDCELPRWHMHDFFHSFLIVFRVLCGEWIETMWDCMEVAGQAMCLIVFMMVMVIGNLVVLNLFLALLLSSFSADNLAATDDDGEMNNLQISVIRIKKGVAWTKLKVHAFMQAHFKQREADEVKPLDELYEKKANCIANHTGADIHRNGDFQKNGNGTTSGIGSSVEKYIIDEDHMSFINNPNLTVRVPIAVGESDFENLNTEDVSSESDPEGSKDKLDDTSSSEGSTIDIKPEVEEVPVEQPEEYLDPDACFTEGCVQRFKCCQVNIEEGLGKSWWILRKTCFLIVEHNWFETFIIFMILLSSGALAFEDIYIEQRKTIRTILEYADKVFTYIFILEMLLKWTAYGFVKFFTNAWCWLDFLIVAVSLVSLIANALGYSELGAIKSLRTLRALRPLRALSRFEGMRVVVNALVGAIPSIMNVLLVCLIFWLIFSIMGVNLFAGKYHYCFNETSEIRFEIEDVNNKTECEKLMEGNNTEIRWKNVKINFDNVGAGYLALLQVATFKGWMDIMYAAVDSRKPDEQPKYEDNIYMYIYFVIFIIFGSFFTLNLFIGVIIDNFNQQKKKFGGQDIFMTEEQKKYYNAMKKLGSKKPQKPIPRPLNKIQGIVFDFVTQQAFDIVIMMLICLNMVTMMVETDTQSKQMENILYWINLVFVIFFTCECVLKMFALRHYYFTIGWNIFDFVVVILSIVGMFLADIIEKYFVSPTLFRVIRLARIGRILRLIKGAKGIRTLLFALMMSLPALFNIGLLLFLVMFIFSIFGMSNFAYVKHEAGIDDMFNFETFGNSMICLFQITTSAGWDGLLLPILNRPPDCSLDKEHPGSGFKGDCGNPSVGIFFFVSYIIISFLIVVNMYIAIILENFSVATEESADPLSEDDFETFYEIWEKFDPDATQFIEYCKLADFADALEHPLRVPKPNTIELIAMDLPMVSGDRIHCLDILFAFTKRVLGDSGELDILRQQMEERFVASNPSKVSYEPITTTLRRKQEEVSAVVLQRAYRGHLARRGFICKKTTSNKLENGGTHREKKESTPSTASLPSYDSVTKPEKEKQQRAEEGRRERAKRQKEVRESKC
Experimental: As such, in an effort to further investigate their seemingly inverse activities, 12 and 19 were selected for functional evaluation as modulators of Nav1.6. To do so, HEK293 cells stably expressing Nav1.6 (HEK-Nav1.6) were incubated for 30 min with 0.1% DMSO (control), 20 µM 12, or 20 µM 19. After incubation, the modulatory effects of these peptidomimetics on Nav1.6-mediated currents were assessed using whole-cell patch-clamp electrophysiology (Figure 5 and Table 4).
HEK293 cells were maintained in Dulbecco’s Modified Eagle Medium (DMEM) and F-12 (Invitrogen, Carlsbad, CA, USA), supplemented with 0.05% glucose, 0.5 mM pyruvate, 10% fetal bovine serum, 100 units/mL penicillin, and 100 µg/mL streptomycin (Invitrogen), and incubated at 37 °C with 5% CO2. The double stable HEK293 cell line expressing CD4-Nav1.6C-tail-NLuc and CLuc-FGF14 used for LCA experiments was described in a previous study and was maintained using selective antibiotics (0.5 mg/mL G418 and 5 µg/mL puromycin). HEK293 cells stably expressing the human Nav1.6 channel (hereafter referred to as HEK-Nav1.6 cells) were maintained similarly, except for the addition of 500 μg/mL G418 (Invitrogen) to maintain stable Nav1.6 expression. Cells were transfected at 80–90% confluence with equal amount (1 μg each) of plasmid pairs using Lipofectamine 3000 (Invitrogen, Waltham, MA, USA) according to the manufacturer’s instructions. HEK-Nav1.6 cells were washed and re-plated at very low density prior to electrophysiological recordings.
HEK293 cells stably expressing Nav1.6 (HEK-Nav1.6) were grown in culture as described above. Prior to experimentation, HEK-Nav1.6 cells were dissociated using Gibco TrypLE (Thermo Fisher Scientific, Walthman, MA, USA) and plated at low density onto glass coverslips situated at the base of wells in CELLSTAR® 24-Well Multi-Well Plates (Greiner Bio-One, Monroe, NC, USA). Cells were then incubated on glass cover slips for 2–3 h. After incubation, glass cover slips were transferred to the recording chamber containing 3 mL of extracellular solution comprised of the following salts (mM): 140 NaCl, 3 KCl, 1 MgCl2, 1 CaCl2, 10 HEPES, 10 glucose, pH 7.3. After incubating for thirty minutes in the extracellular solution containing either DMSO or experimental compound, recordings were then performed at room temperature (20–22 °C) using a MultiClamp 700B amplifier (Molecular Devices, Sunnyvale, CA) and borosilicate glass pipettes (resistance of 3–6 MΩ) containing intracellular solution comprised of the following salts (mM): 130 CH3O3SCs, 1 ethylene glycol tetraacetic acid (EGTA), 10 NaCl, 10 HEPES, pH 7.3. Dial settings on the amplifier were used to estimate membrane capacitance and series resistance and compensated for electronically by 70–80%. Prior to digitization and storage, data were acquired at 20 kHz and filtered at 5 kHz. Clampex 9.2 software (Molecular Devices), interfaced to the electrophysiological equipment using a Digidata 1200 analog-digital interface (Molecular Devices), was used to control all experimental parameters. To assess the relationship of INa and voltage, HEK-Nav1.6 cells were evoked by depolarizations to test potentials ranging from –100 to +60 mV from a holding potential of −70 mV, followed by a voltage pre-step pulse of −120 mV. To assess steady-state inactivation of Nav channels, HEK-Nav1.6 cells were evoked using a paired-pulse protocol in which cells were stepped, from the holding potential, to varying test potentials ranging from −120 to +20 mV (pre-pulse) prior to a test pulse to −20 mV.

[2] = test system: HEK293 cells (Clone V cells); conditions: positive control with known toxicity; cited from earlier work
Nav1.6 channel [3] = molecular target: T2, Nav1.6 channel; parameters: method as in PMID 30587448; conditions: previously reported, cited from earlier work
[4] = molecular target: T3, fibroblast growth factor 14 (FGF14), aa 64–252 (UniProt Q92915); test: SPR; Biacore T100; FGF14 (17,896 RU) or Nav1.6 C-tail (6,800 RU) amine-coupled to CM5 chips; compounds 0.195–200 µM flowed at 60 µL/min, 25 °C, PBS with 0.005% Tween-20 and 2% DMSO; KD is the average of the 1:1 Langmuir kinetic fit and the steady-state fit
T3 sequence: T1 sequence (Q92915 64-252 isoform Q92915-2)

[5] = molecular target: T3, fibroblast growth factor 14 (FGF14), aa 64–252; test: as above; remark: listed apart in the source

Molecule: COC(=O)[C@H](CCCCNC(=O)OCC1c2ccccc2-c2ccccc21)NC(=O)[C@@H]1CCCN1C(=O)[C@H](CC(C)C)NC(=O)[C@H](Cc1ccccc1)NC(C)=O [ZL181] (Ac-FLPK(Fmoc)-OMe)
Firing frequencies in MSNs of the NAc (MSNs of the NAc): decreased maximal and instantaneous firing frequencies

Molecule: CC(C)[C@H](NC(=O)[C@H](Cc1ccc(OC(C)(C)C)cc1)NC(=O)[C@H](Cc1ccc(OC(C)(C)C)cc1)NC(=O)OCC1c2ccccc2-c2ccccc21)C(N)=O [Compound 12, (9H-fluoren-9-yl)methyl ((S)-1-(((S)-1-(((S)-1-amino-3-methyl-1-oxobutan-2-yl)amino)-3-(4-(tert-butoxy)phenyl)-1-oxopropan-2-yl)amino)-3-(4-(tert-butoxy)phenyl)-1-oxopropan-2-yl)carbamate] (Fmoc-Tyr(tBu)-Tyr(tBu)-Val-NH2)
koff (FGF14): 0.0186 s⁻¹ | kon (FGF14): 6440 M⁻¹ s⁻¹ | Tau of Fast Inactivation (Nav1.6 channel [1]; mean ± SEM): 1.30 ± 0.11 (7) ms | Long Term Inactivation, depolarization cycle 4 (INa/INa,Cycle 1) (Nav1.6 channel [1]): 0.70 ± 0.04 (7) | Long Term Inactivation, depolarization cycle 3 (INa/INa,Cycle 1) (Nav1.6 channel [1]): 0.76 ± 0.03 | Long Term Inactivation, depolarization cycle 2 (INa/INa,Cycle 1) (Nav1.6 channel [1]): 0.88 ± 0.03 | V1/2 of Activation (Nav1.6 channel [1]; mean ± SEM, DMSO –20.04 ± 0.85): –20.40 ± 0.89 (10) mV | V1/2 of Steady-state Inactivation (Nav1.6 channel [1]; mean ± SEM): –57.59 ± 0.56 (6) mV

Molecule: CC/C(=C(\c1ccccc1)c1ccc(OCCN(C)C)cc1)c1ccccc1 [Tamoxifen]
Toxicity toward HEK293 cells [2]: toxic

Molecule: CC(=O)N[C@@H](CCC(=O)OC(C)(C)C)C(=O)N[C@@H](Cc1ccc(OC(C)(C)C)cc1)C(=O)N[C@@H](Cc1ccc(OC(C)(C)C)cc1)C(=O)N[C@H](C(N)=O)C(C)C [Compound 17, tert-butyl (S)-4-acetamido-5-(((S)-1-(((S)-1-(((S)-1-amino-3-methyl-1-oxobutan-2-yl)amino)-3-(4-(tert-butoxy)phenyl)-1-oxopropan-2-yl)amino)-3-(4-(tert-butoxy)phenyl)-1-oxopropan-2-yl)amino)-5-oxopentanoate] (Ac-E(OtBu)Y(tBu)Y(tBu)V-NH2)
koff (FGF14): 0.088 s⁻¹ | kon (FGF14): 6030 M⁻¹ s⁻¹

Molecule: CC(C)[C@H](NC(=O)[C@H](Cc1ccc(OC(C)(C)C)cc1)NC(=O)[C@H](Cc1ccc(OC(C)(C)C)cc1)NC(=O)[C@H](CCC(=O)OC(C)(C)C)NC(=O)c1ccccc1)C(N)=O [Compound 19, tert-butyl (S)-5-(((S)-1-(((S)-1-(((S)-1-amino-3-methyl-1-oxobutan-2-yl)amino)-3-(4-(tert-butoxy)phenyl)-1-oxopropan-2-yl)amino)-3-(4-(tert-butoxy)phenyl)-1-oxopropan-2-yl)amino)-4-benzamido-5-oxopentanoate] (Bz-E(OtBu)Y(tBu)Y(tBu)V-NH2)
Fold increase in binding to FGF14 (FGF14; 19 relative to 17 (Ac to benzoyl)): approximately 2 fold | koff (FGF14): 0.013 s⁻¹ | kon (FGF14): 2060 M⁻¹ s⁻¹ | Tau of Fast Inactivation (Nav1.6 channel [1]; mean ± SEM): 1.12 ± 0.07 (7) ms | Long Term Inactivation, depolarization cycle 4 (INa/INa,Cycle 1) (Nav1.6 channel [1]): 0.73 ± 0.03 (8) | Long Term Inactivation, depolarization cycle 3 (INa/INa,Cycle 1) (Nav1.6 channel [1]): 0.73 ± 0.02 | Long Term Inactivation, depolarization cycle 2 (INa/INa,Cycle 1) (Nav1.6 channel [1]): 0.83 ± 0.02 | V1/2 of Steady-state Inactivation (Nav1.6 channel [1]; mean ± SEM): –58.53 ± 1.69 (8) mV

Molecule: CC(C)C[C@H](NC(=O)[C@H](Cc1ccccc1)NC(=O)OCc1ccccc1)C(=O)N1CCC[C@H]1C(=O)N[C@@H](CCCCNC(=O)OC(C)(C)C)C(N)=O [ZL0177] (Cbz-FLPK(Boc)-NH2)
Nav1.6-mediated peak current density (Nav1.6 channel [3]): –26.65 ± 6.3 pA/pF | Voltage-dependence of Nav1.6 channel activation (Nav1.6 channel [3]; whole-cell patch-clamp): depolarizing shift in voltage-dependence of Nav1.6 channel activation

Molecule: CCCCCCCCCC(=O)N[C@@H](CCC(=O)OC(C)(C)C)C(=O)N[C@@H](Cc1ccc(OC(C)(C)C)cc1)C(=O)N[C@@H](Cc1ccc(OC(C)(C)C)cc1)C(=O)N[C@H](C(N)=O)C(C)C [Compound 22, tert-Butyl (S)-5-(((S)-1-(((S)-1-(((S)-1-amino-3-methyl-1-oxobutan-2-yl)amino)-3-(4-(tert-butoxy)phenyl)-1-oxopropan-2-yl)amino)-3-(4-(tert-butoxy)phenyl)-1-oxopropan-2-yl)amino)-4-decanamido-5-oxopentanoate] (Decanoyl-E(OtBu)Y(tBu)Y(tBu)V-NH2)
koff (FGF14): 0.109 s⁻¹ | kon (FGF14): 690 M⁻¹ s⁻¹

Kd [4]: 14.3 µM | koff [4]: 0.088 s⁻¹ | kon [4]: 6030 M⁻¹ s⁻¹
B1: compound 17 (PW0203) (peptide)
peptide: Ac-[Glu(OtBu)][Tyr(OtBu)][Tyr(OtBu)]V-NH2
SMILES: CC(=O)N[C@@H](CCC(=O)OC(C)(C)C)C(=O)N[C@@H](Cc1ccc(OC(C)(C)C)cc1)C(=O)N[C@@H](Cc1ccc(OC(C)(C)C)cc1)C(=O)N[C@H](C(N)=O)C(C)C

Kd [4]: > 100 µM | koff [4]: 0.109 s⁻¹ | kon [4]: 690 M⁻¹ s⁻¹
B2: compound 22 (PW0207) (peptide)
peptide: Decanoyl-[Glu(OtBu)][Tyr(OtBu)][Tyr(OtBu)]V-NH2
SMILES: CCCCCCCCCC(=O)N[C@@H](CCC(=O)OC(C)(C)C)C(=O)N[C@@H](Cc1ccc(OC(C)(C)C)cc1)C(=O)N[C@@H](Cc1ccc(OC(C)(C)C)cc1)C(=O)N[C@H](C(N)=O)C(C)C

Kd [5]: 6.3 µM | Kd [4]: 6.49 µM | koff [4]: 0.013 s⁻¹ | kon [4]: 2060 M⁻¹ s⁻¹
B3: compound 19 (PW0204) (peptide)
peptide: Bz-[Glu(OtBu)][Tyr(OtBu)][Tyr(OtBu)]V-NH2
SMILES: CC(C)[C@H](NC(=O)[C@H](Cc1ccc(OC(C)(C)C)cc1)NC(=O)[C@H](Cc1ccc(OC(C)(C)C)cc1)NC(=O)[C@H](CCC(=O)OC(C)(C)C)NC(=O)c1ccccc1)C(N)=O
